A short description of the data set: Concentration of saturated solution of racemic HCl salt in EtOH, determined by HPLC. In kind it is physicochemical. As to the method: A saturated solution of racemic HCl salt is prepared by heating 50 g of salt in EtOH (350 ml) to reflux. A clear solution is formed. This is allowed to cool to 40° C. The mixture is seeded with a slurry of racemic HCl salt.
Crystallization is observed. This is allowed to equilibrate overnight. The mixture is filtered into the reaction vessel (preheated to 40° C.). This is heated to 60° C. to ensure complete dissolution, cooled to 40° C. and sampled to determine the concentration by HPLC. This is then cooled to 13° C. in increments of 1° C./5 min. At 13° C. a small amount of crystallisation is observed. A seed sample is also added and this is allowed to equilibrate overnight. A sample is removed for concentration determination at 13° C.

The record followed here is patent publication US8742102B2, “Process for enantiomeric separation of racemic dihydro-1,3,5 triazines via preferential crystallization” (Poxel, priority 2009, dated 2014).

With `CC1N=C(N)NC(N(C)C)=N1` (racemic) [A1, 2-amino-3,6-dihydro-4-dimethylamino-6-methyl-1,3,5-triazine], where the note is “equilibrated at 40° C.”, the “Concentration of sat. solution at 40° C.” value was 92200 µg/mL. Moreover, the “Concentration at 13° C.” value (equilibrated overnight at 13° C.) worked out at 69740 µg/mL.
